“Also recorded” adds a separate entry of the source.
Assays:
chondrocytes = assay: Cell viability, MTT assay; format: cell-based, human; settings: up to 20 mM
[1] = tested on: TNFα induced nitric oxide (NO) production in normal human articular chondrocytes; assay: TNFα induced NO production in chondrocytes; format: cell-based
[2] = tested on: IL-1β induced NO production in normal human articular chondrocytes; assay: IL-1β induced NO production in cultured chondrocytes (NO2 accumulation, Griess reaction); format: cell-based; settings: for inhibitory activity on IL-1β induced NO production: concentration of 10 mM
Procedure: Chondrocytes were isolated from the cartilage by collagenase digestion and maintained in continuous monolayer cultures in DMEM containing 10% fetal bovine serum (FBS). Cell viability after chondrocyte isolation by collagenase digestion of normal cartilage was >95%. This level was maintained for at least 96 hrs post mortem. […] Experiments reported were performed with primary or first passage cells.
Chondrocytes were plated at 40,000 cells/well in 96-well plates in the presence of 1 % FBS. After 48 h, the medium was changed, and the cells were stimulated with IL-1β (Sigma) at a concentration of 5 ng/ml for 24 h. NO production was detected as NO2 accumulation in the culture supernatants by the Griess reaction as described elsewhere (Heval et al., (1994) Methods Enzymol. 233:250). IL-6 in the culture supernatants was measured by ELISA (R&D Systems, Minneapolis, MN) in accordance with the supplier's protocol.

bradykinin-induced pain = assay: Bradykinin-induced pain after intra-articular administration (walking behavior pain score); format: in vivo, Wistar rats; settings: intra-articular administration in rats; Figure 6
Procedure: The purpose of this study was to investigate the analgesic effects of GlcNAc with or without liposomal formulations, injected intra-articularly into the joint of Wistar rats. Pain was induced by intra-articular administration of bradykinin. Adult male Wistar rats with a weight range from 220g to 250g were obtained from Laboratory Animals Centre, National University of Singapore. Bradykinin and GlcNAc were obtained from Sigma. The liposomes were prepared as described above.
50 µl of GlcNAc solution or an GIcNAc formulated liposome suspension was injected into a rat joint cavity. An equal volume of saline was given intra-articularly as a control. 50 µl of bradykinin (60 µg/ml or at the indicated concentration) was given intra-articularly at different time points following the administration of GlcNAc.
Changes in walking behavior caused by intra-articular injection of bradykinin were used to define induced pain criteria in rats. The methods used to observe the pain response are defined in Table 2. The degree of pain was assigned a score according to the criteria in Table 3.

Compound | TNFα induced nitric oxide (NO) production [1] | NO production triggered by IL-1β [2] | inhibitory activity on IL-1β induced NO production [2] | further results
N[C@H]1C(O)O[C@H](CO)[C@@H](O)[C@@H]1O (stereo partly shown) [GA, glucosamine] | inhibit | suppressed NO production; also recorded: measurably inhibited NO production in the lower millimolar range | – | cell viability (chondrocytes): Neither GA nor GlcNAc at dosages up to 20 mM affected cell viability; concentrations not effective in inhibiting NO production [2]: below 1 mM; IC50 ([2]; Homo sapiens, Chondrocyte, IL-1β 5 ng/ml for 24 h, GlcNAc vs GA p < 0.01, read-out: IC50 (inhibition of NO production)): 14.9 ± 2.1 mM
Bradykinin (RPPGFSPFR; Bradykinin; UniProt P01042 381-389, looked up) | – | – | – | pain scores, dose response (bradykinin-induced pain): Higher pain scores correlate with the amount of injected Bradykinin
O=C[C@H](O)[C@@H](O)[C@H](O)[C@H](O)C(=O)O [glucuronic acid] | did not inhibit | – | did not inhibit | –
CC(=O)N[C@H]1[C@H](O[C@H]2[C@H](O)[C@@H](NC(C)=O)C(O)O[C@@H]2CO)O[C@H](CO)[C@@H](O)[C@@H]1O (stereo partly shown) [GlcNAc dimers, N,N'-diacetylchitobiose] | – | did not express inhibitory activity | – | –
CC(=O)N[C@@H]1C(O)O[C@H](CO)[C@@H](O)[C@@H]1O (stereo partly shown) [N-acetylmannosamine] | did not inhibit | – | did not inhibit | –
CC(=O)N[C@H]1[C@H](O[C@H]2[C@H](O)[C@@H](NC(C)=O)C(O)O[C@@H]2CO)O[C@H](CO)[C@@H](O[C@@H]2O[C@H](CO)[C@@H](O)[C@H](O)[C@H]2NC(C)=O)[C@@H]1O (stereo partly shown) [trimers, N,N',N"-triacetylchitotriose] | – | did not express inhibitory activity | – | –
CC(=O)N[C@H]1C(O)O[C@H](CO)[C@H](O)[C@@H]1O (stereo partly shown) [N-acetylgalactosamine] | – | – | demonstrated inhibitory activity | –
